For 15 molecules, IC50 results are on record in patent publication US7205295B2, “Benzoxazin-3-ones and derivatives thereof as therapeutic agents” (Warner-Lambert Company LLC, priority 2002, dated 2007).

This experiment concerns the target T1, PI3Kγ (p101/p110γ protein) (Homo sapiens, UniProt P48736).
T1 construct: HA; made in house; host or cells: Spodoptera frugiperda (Sf9) cells, baculovirus co-infection
The experiment can be described thus: PI3Kγ In Vitro Kinase Assay. Format: biochemical. To be noted: purified recombinant p101/p110γ with G protein β1/γ2 subunits; 20 μM ATP, 25 μM PIP2; 20 minutes at room temperature. In outline:
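Sf9-expressed, purified human p101/p110γ (2.7 nM) was activated by Gβ1/γ2 (57.7 nM) and reacted with 20 μM ATP plus [γ-32P]ATP on PIP2 (25 μM)/PE (300 μM) micelles with 10 mM MgCl2 in HEPES buffer. Reactions ran 20 min at room temperature. Filter-captured radiolabeled PIP3 was counted by scintillation.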

T1 sequence (P48736 whole entry, species assumed): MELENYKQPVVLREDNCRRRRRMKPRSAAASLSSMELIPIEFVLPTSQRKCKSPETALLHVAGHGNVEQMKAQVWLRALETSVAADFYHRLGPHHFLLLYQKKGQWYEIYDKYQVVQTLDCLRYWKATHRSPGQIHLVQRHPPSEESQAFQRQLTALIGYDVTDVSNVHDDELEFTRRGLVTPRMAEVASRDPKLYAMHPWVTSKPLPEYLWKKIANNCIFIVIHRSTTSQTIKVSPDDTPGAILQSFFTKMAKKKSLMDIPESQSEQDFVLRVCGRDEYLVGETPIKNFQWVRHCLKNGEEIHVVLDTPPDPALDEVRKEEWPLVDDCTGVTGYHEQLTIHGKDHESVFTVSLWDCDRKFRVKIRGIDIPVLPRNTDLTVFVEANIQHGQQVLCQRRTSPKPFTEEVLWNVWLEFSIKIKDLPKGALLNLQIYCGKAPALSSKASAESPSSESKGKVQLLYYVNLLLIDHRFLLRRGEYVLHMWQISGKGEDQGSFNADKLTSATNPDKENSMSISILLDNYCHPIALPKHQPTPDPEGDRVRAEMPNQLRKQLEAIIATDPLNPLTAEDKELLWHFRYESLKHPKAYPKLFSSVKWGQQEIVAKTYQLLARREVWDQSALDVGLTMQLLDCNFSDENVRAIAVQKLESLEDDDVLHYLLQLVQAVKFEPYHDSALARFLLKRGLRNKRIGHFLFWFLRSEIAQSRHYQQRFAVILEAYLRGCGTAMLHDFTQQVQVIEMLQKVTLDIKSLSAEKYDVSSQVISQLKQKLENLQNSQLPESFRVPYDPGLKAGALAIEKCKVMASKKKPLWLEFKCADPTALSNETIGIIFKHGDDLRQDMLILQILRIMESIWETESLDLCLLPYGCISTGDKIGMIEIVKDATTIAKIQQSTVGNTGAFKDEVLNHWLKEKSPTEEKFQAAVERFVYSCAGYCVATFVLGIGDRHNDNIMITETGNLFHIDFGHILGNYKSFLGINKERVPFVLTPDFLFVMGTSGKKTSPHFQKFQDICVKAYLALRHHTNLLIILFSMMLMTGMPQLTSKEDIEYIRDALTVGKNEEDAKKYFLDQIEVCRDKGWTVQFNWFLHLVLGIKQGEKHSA
T1 sequence (Q8WYR1 whole entry partner, species assumed): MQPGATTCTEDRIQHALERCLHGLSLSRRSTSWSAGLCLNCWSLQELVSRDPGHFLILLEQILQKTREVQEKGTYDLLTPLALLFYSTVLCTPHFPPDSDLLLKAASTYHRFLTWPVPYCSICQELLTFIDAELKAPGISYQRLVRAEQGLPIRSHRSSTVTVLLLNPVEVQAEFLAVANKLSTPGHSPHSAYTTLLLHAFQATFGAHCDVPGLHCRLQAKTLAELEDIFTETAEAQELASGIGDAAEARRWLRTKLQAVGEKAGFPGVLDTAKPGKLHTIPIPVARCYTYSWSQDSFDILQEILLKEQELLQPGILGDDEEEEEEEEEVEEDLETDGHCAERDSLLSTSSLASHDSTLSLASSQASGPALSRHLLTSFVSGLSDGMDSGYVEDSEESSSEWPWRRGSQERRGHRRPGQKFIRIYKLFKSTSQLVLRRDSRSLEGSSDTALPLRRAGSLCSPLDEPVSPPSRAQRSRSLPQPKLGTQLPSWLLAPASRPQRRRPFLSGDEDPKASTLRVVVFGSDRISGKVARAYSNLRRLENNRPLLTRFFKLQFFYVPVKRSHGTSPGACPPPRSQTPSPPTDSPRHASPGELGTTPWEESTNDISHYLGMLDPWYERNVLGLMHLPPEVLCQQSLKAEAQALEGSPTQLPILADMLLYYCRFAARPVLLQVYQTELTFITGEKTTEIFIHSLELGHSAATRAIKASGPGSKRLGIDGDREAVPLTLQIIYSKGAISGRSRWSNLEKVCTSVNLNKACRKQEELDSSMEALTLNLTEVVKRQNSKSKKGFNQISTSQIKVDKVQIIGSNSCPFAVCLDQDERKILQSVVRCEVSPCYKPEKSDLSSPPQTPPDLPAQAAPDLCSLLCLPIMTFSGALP

On to `Cc1ccc(CN2C(=O)COc3ccc(C=C4SC(=S)NC4=O)cc32)cc1` [Example 140, 4-(4-Methyl-benzyl)-6-(4-oxo-2-thioxo-thiazolidin-5-ylidenemethyl)-4H-benzo[1,4]oxazin-3-one], for which the IC50 (as a rule, the midpoint of a concentration-inhibition curve) came out at 29 nM.

Regarding `NC(=O)CN1C(=O)COc2ccc(C=C3SC(=S)NC3=O)cc21` [Example 141, 2-[3-Oxo-6-(4-oxo-2-thioxo-thiazolidin-5-ylidenemethyl)-2,3-dihydrobenzo[1,4]oxazin-4-yl]-acetamide], the IC50 was 860 nM.

On to `O=C1NC(=S)SC1=Cc1ccc2c(c1)N(CC1CCCCC1)C(=O)CO2` [Example 143, 4-Cyclohexylmethyl-6-(4-oxo-2-thioxo-thiazolidin-5-ylidenemethyl)-4H-benzo[1,4]oxazin-3-one], for which the IC50 was found to be 35 nM.

In the case of `CC(C)CCN1C(=O)COc2ccc(C=C3SC(=S)NC3=O)cc21` [Example 144, 4-(3-Methyl-butyl)-6-(4-oxo-2-thioxo-thiazolidin-5-ylidenemethyl)-4H-benzo[1,4]oxazin-3-one], the 50% inhibitory concentration (IC50) turned out to be 24 nM.

Consider `O=C1NC(=S)SC1=Cc1ccc2c(c1)N(CC1CC1)C(=O)CO2` [Example 145, 4-Cyclopropylmethyl-6-(4-oxo-2-thioxo-thiazolidin-5-ylidenemethyl)-4H-benzo[1,4]oxazin-3-one], for which the IC50 amounted to 26 nM.

`O=C1NC(=S)SC1=Cc1ccc2c(c1)N(Cc1ccsc1)C(=O)CO2` [Example 146, 6-(4-Oxo-2-thioxo-thiazolidin-5-ylidenemethyl)-4-thiophen-3-ylmethyl-4H-benzo[1,4]oxazin-3-one]: the IC50 came out at 30 nM.

Regarding `O=C1NC(=S)SC1=Cc1ccc2c(c1)N(Cc1ccccn1)C(=O)CO2` [Example 147, 6-(4-Oxo-2-thioxo-thiazolidin-5-ylidenemethyl)-4-pyridin-2-ylmethyl-4H-benzo[1,4]oxazin-3-one], the IC50 was determined as 49 nM.

For `O=C1NC(=S)SC1=Cc1ccc2c(c1)N(Cc1ccncc1)C(=O)CO2` [Example 148, 6-(4-Oxo-2-thioxo-thiazolidin-5-ylidenemethyl)-4-pyridin-4-ylmethyl-4H-benzo[1,4]oxazin-3-one], the IC50 is 61 nM.

Turning to `N#Cc1cccc(CN2C(=O)COc3ccc(C=C4SC(=S)NC4=O)cc32)c1` [Example 149, 3-[3-Oxo-6-(4-oxo-2-thioxo-thiazolidin-5-ylidenemethyl)-2,3-dihydro-benzo[1,4]oxazin-4-ylmethyl]-benzonitrile], the IC50 came to 21 nM.

Consider `Cc1cc(C)cc(CN2C(=O)COc3ccc(C=C4SC(=S)NC4=O)cc32)c1` [Example 150, 4-(3,5-Dimethyl-benzyl)-6-(4-oxo-2-thioxo-thiazolidin-5-ylidenemethyl)-4H-benzo[1,4]oxazin-3-one], for which the half-maximal inhibitory concentration (IC50) is 5 nM.

In the case of `C[C@@H]1Oc2ccc(C=C3SC(=S)NC3=O)cc2N(Cc2ccc3ccccc3c2)C1=O` [Example 152, (S)-2-Methyl-4-naphthalen-2-ylmethyl-6-(4-oxo-2-thioxo-thiazolidin-5-ylidenemethyl)-4H-benzo[1,4]oxazin-3-one], the IC50 was 1030 nM.

Consider `COc1cc(C=C2SC(=S)NC2=O)cc2c1OCC(=O)N2Cc1ccccc1` [Example 153, 4-Benzyl-8-methoxy-6-(4-oxo-2-thioxo-thiazolidin-5-ylidenemethyl)-4H-benzo[1,4]oxazin-3-one], for which the IC50 was 96 nM.

For the molecule `Cc1cc(C=C2SC(=S)NC2=O)cc2c1OCC(=O)N2` [Example 154, 8-Methyl-6-(4-oxo-2-thioxo-thiazolidin-5-ylidenemethlyl)-4H-benzo[1,4]oxazin-3-one], the IC50 was 160 nM.

For the molecule `CC(C)(C)CCN1C(=O)COc2ccc(C=C3SC(=S)NC3=O)cc21` [Example 155, 4-(3,3-Dimethyl-butyl)-6-(4-oxo-2-thioxo-thiazolidin-5-ylidenemethyl)-4H-1,4-benzoxazin-3-one], the half-inhibitory concentration (IC50) came out at 10 nM.

As to `O=C1NC(=S)SC1=Cc1ccc2c(c1)N(Cc1cccc(OC(F)(F)F)c1)C(=O)CO2` [Example 156, 6-(4-Oxo-2-thioxo-thiazolidin-5-ylidenemethyl)-4-(3-trifluoromethoxy-benzyl)-4H-1,4-benzoxazin-3-one], the IC50 came to 21 nM.
